# Publication PMC5104457, “ATP-Competitive MLKL Binders Have No Functional Impact on Necroptosis” (PLoS ONE, 2016)
# Target: T1, full length His-MBP-MLKL-3 (Homo sapiens, UniProt Q8NB16)
# T1 construct: The full length MLKL was prepared in baculovirus; made in house; host or cells: baculovirus-infected sf9 insect cells
# T1 sequence (Q8NB16 1-471): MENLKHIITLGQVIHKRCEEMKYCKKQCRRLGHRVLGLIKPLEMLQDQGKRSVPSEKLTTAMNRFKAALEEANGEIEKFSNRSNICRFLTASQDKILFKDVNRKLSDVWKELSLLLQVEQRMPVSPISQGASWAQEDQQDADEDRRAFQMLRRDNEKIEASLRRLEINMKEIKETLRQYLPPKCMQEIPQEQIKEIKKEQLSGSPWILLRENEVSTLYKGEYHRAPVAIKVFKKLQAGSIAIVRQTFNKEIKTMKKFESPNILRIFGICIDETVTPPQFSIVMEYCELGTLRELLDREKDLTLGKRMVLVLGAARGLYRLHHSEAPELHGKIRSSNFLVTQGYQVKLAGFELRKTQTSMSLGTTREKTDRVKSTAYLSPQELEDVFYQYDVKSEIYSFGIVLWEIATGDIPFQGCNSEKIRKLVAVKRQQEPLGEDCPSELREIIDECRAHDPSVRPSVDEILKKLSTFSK
# Experiment: Second harmonic generation (SHG) conformational assay, full length MLKL
# Conditions: 10 μM compound, 20 minutes, mean ± SE
# Procedure: The full length MLKL was prepared in baculovirus using a bacmid DNA which was modified to include a Tev cleavable N-terminal His6 maltose binding protein (His-MBP) tag. His-MBP-MLKL-3 was expressed in baculovirus-infected sf9 insect cells grown in SF-900 II serum-free medium (Invitrogen). Cells were harvested by centrifugation 48 hours post-infection. The cells were resuspended in lysis buffer (50mM TRIS pH 8.0, 500mM NaCl, 10% glycerol, 1mM DTT and Roche EDTA-free protease inhibitor cocktail) and were lysed using a microfluidizer. The lysate was clarified by centrifugation at 20,000 x g for 1 hour at 4°C and the His-MBP-MLKL-3 was captured by batch binding to Nickel NTA resin overnight at 4°C. The resin was washed with buffer A (25mM TRIS pH 8.0, 250mM NaCl, 10% glycerol, 1mM DTT) and loaded into an XK column and washed until no non-specific unbound protein was detected. His-MBP-MLKL3 was eluted from the column using buffer A supplemented with 250mM imidazole pH 8.0 and analyzed by SDS-PAGE. […]
# Experiments were performed on a Biodesy Delta System. […] The fundamental is directed to an arrangement of prisms integrated with the custom, glass-bottomed Biodesy Delta Read Plates, where it undergoes total internal reflection (TIR) to generate the evanescent field at the glass-lipid bilayer interface. […]
smiles,measurement,value
"CN(c1ccc(NC(=O)Nc2ccc(OC(F)(F)F)cc2)cc1)c1ccnc(Nc2cccc(S(N)(=O)=O)c2)n1 [cpd 1, reference compound]","% change in SHG intensity, Full-length HisMBP-MLKL-3",25.9 ± 1.6%
